Reference: patent US20260218130A1, “METHOD FOR CULTURING ANIMAL CELLS” (Ajinomoto Co., Inc., priority 2023, published 2026)

Columns and labels:
[1] = system: CD8-positive human T cells; assay: Proliferation of CD8-positive human T cells in serum-free medium; format: cell-based; conditions: hinokitiol 0.49 or 0.0049 μM, cell count after 7 days, FIG. 4
Method: CD3 Monoclonal Antibody (Thermo Fisher Scientific, Cat No. 16-0037-85) was mixed with PBS and added to a 24-well plate. After incubating at 37° C. for 1 hour, the plate was washed 3 times with PBS. As a base medium, CTS™ OpTmizer™ T Cell Expansion (Thermo Fisher Scientific, Cat No. A104851) supplemented with CTS™ Immune Cell SR (Thermo Fisher Scientific, Cat No. A2596101), 200 mM L-glutamine (Thermo Fisher Scientific, Cat No. 25030081), P/S/Amphotericin B (Fujifilm-Wako, Cat No. 161-23181), and IL2 (PeproTech, Cat No. 200-02) was used. In the coated 24-well plates, medium groups with hinokitiol added as shown in Table 3 were prepared, and CD8+ T cells (LONZA, Cat No. 2W-300) were cultured in each respective group. A cell count was performed after 7 days, and the proliferation rate was calculated.

[2] = system: porcine subcutaneous preadipocytes (PSPA); assay: Proliferation of porcine subcutaneous preadipocytes (PSPA) in serum-free medium; format: cell-based; conditions: hinokitiol 0.25 or 0.5 μM + FeSO4•7H2O 1 μM, serum-free medium (transferrin-free); 4 days; FIG. 2
Method: As the porcine subcutaneous preadipocytes (PSPA), an adipose precursor cell line derived from porcine fetal subcutaneous tissue, described in Nakajima, et al. Biochem Biophys Res Commun. 2003 Sep. 26; 309(3): 702-8, was obtained from RIKEN RCB and used. The porcine subcutaneous preadipocytes (PSPA) from (2-1) were cultured using a serum medium. As the serum medium, a medium was used in which DMEM (Gibco, Cat No. 10313-021) was supplemented with 10% FBS (Thermo Fisher Scientific, Cat No. 10270106), 1% GlutaMAX™ Supplement (Thermo Fisher Scientific, Cat No. 35050061), and 1% Penicillin-Streptomycin (Nacalai Tesque, Cat No. 09367-34). As the serum-free medium, a medium based on the aforementioned E8 medium was used. PSPA were seeded into a 12-well plate at a density of 10,000 cells/cm^2, and the cells were subcultured into a serum medium, a transferrin-containing serum-free medium, or a hinokitiol- and iron-containing serum-free medium (transferrin-free), with medium exchange performed every other day. Cell counting was performed 4 days after the start of culturing, and the fold increase in cell number was calculated.

bovine muscle stem cells = assay: Proliferation of bovine muscle stem cells in serum-free medium; format: cell-based; conditions: FIG. 1
Description: Muscle tissue was collected from edible bovine shank meat, and CD56-positive cells were isolated using a Magnetic-Activated Cell Sorting (MACS) system to obtain bovine muscle stem cells. The bovine muscle stem cells obtained in (1-1) were suspended in a serum medium. As the serum medium, a medium was used in which Advanced DMEM (Thermo Fisher Scientific, Cat No. 12491015) was supplemented with 20% FBS (Thermo Fisher Scientific, Cat No. 10270106), 10% horse serum (Thermo Fisher Scientific, Cat No. 16050-130), and 1% GlutaMAX™ Supplement (Thermo Fisher Scientific, Cat No. 35050061). The cell suspension was seeded into a 12-well plate (BD FALCON, Cat #353046) coated with 1 μg/cm^2 fibronectin (Corning, Cat #F2006) at a cell density of 25,000 cells/0.2 mL, and the medium was changed every other day. On the fourth day of culture, the cells were subcultured into a hinokitiol-containing serum-free medium, a hinokitiol- and iron-containing serum-free medium, an iron-containing serum-free medium, a transferrin- and iron-containing serum-free medium, a transferrin-containing serum-free medium, or a serum-free medium not containing hinokitiol and transferrin, and the medium was changed every other day. […] Cell counting and subculturing were performed every 4 days, and the growth rate for two consecutive passages from day 4 to day 12 was calculated.

HEK293 cells = assay: Proliferation of HEK293 cells in suspension culture system; format: cell-based, human; conditions: hinokitiol 500 nM in Basal 10 or in-house medium, 20 days, FIG. 3
Method: As HEK293, Viral Production Cells 2.0 (Thermo Fisher Scientific: A49784), which is a clonal cell line derived from the HEK293 cell line, was used. The HEK293 cell line is widely known as a cell line derived from human embryonic kidney.
Using a 125 mL Erlenmeyer flask (VIOLAMO, SEF125V), Viral Production Cells 2.0, a clonal cell line derived from the HEK293 cell line, were seeded into 30 ml of Viral Production Medium (Thermo Fisher Scientific: A4817901) supplemented with GlutaMAX™ Supplement (Thermo Fisher Scientific, Cat No. 35050061) to a final concentration of 4 mM.
The cells were cultured with agitation in an incubator set at 37° C. and 8% CO2, and were subcultured twice. Thereafter, the cells were subcultured and cultured in a medium based on 30 mL of Basal 10 (Ajinomoto Healthy Supply, Co., Inc., CELLIST™ Basal media BASAL10) or an in-house medium supplemented with hinokitiol to a final concentration of 500 nM. The process of measuring the viable cell count every 3 or 4 days using a Vi-CELL BLU Cell Viability Analyzer (Beckman Coulter) before subculturing was repeated, and the cells were cultured for a total of 20 days.

CC(C)c1cccc(=O)c(O)c1 [hinokitiol]
cell proliferation (fold increase, proliferation rate) [1]: cell proliferation-promoting effect | cell proliferation (fold increase in cell number) [2]: cell proliferation-promoting effect | cell proliferation-promoting effect on enhancing the iron concentration (bovine muscle stem cells; hinokitiol 0.03 or 0.30 μM + FeSO4•7H2O 1.0 or 10.1 μM, serum-free medium, in some cases): further improved | cell proliferation (fold increase, growth rate for two consecutive passages) (bovine muscle stem cells; hinokitiol 0.03 or 0.30 μM in E8-based serum-free medium, transferrin-free, day 4 to day 12): cell proliferation-promoting effect | cell proliferation (viable cell count) (HEK293 cells): cell proliferation-promoting effect
